Where no end group is shown, it is not given here. The star is where a group is joined. FITC = O=C1OC2(c3ccc(O)cc3Oc3cc(O)ccc32)c2ccc(NC(=S)*)cc21; Acp = not defined here
Experiments:
SCC‐13 cells = assay: Flow cytometry binding of FITC‐RS17 to SCC‐13 cells; assay type: cell-based, human; details: 1 μM FITC‐RS17, 1 h, 37℃
Method: (§1) The peptides were synthesized using the solid‐phase peptide synthesis method. Amino acid activation phase included 1‐hydroxybenzotriazole (HOBt) and N, N′‐diisopropylcarbodiimide (DIC). Deprotection agent was piperidine (PIP). Following synthesis, the peptides were cleaved with 90% of trifluoroacetic acid (TFA) and precipitated with ether to obtain the crude product. The crude peptides were purified by HPLC and the molecular weight were measured by online ESI‐MS, respectively. Besides, the FITC‐RS17 peptide was prepared by coupling with FITC through the Acp active group to RS17. The product was purified and analyzed by the same process.
(§2) The SCC‐13 human cutaneous squamous cell carcinoma cell lines, HepG2 human HCC cell line, THP‐1 human mononuclear cell line, and mouse mononuclear/macrophage cell lines were from Chinese Academy of Sciences in Shanghai. SCC‐13 and HepG2 cells were incubated in DMEM medium which contains 100 μg/ml of streptomycin and 50 μg/ml of penicillin. The medium also contains 10% of fetal bovine serum from Gibco Life Technologies. […]
(§3) The binding of RS17 to the CD47‐expressing cells were assessed by the Flow cytometry technique. […]. ^14 In brief, HepG2 and SCC‐13 cells were collected and adjusted to 3 × 10^6 cells/ml. […] After washing with PBS, the cells were analyzed with a flow cytometer (Miltenyi Biotec GmbH). Data were analyzed with FlowJo 7.6.

HepG2 cells = assay: Flow cytometry binding of FITC‐RS17 to HepG2 cells; assay type: cell-based, human; details: 1 μM FITC‐RS17, 1 h, 37℃
Method: as §1, §2, §3

CD47 protein = biological target: T1, CD47 protein (Homo sapiens, UniProt Q08722); assay: Microscale thermophoresis (MST), RS17–CD47 interaction; assay type: binding; details: Monolith NT.115, NT‐Analysis, Cy5-labeled CD47 mixed 1:1 with diluted peptide, 5 min, room temperature, read-out: dissociation constant (Kd) for RS17 and CD47 interaction
T1 construct: CD47 protein was from Cloud‐Clone; purchased Cloud‐Clone
Method: CD47 protein was from Cloud‐Clone. The CD47 protein was dissolved in a buffer solution without primary amine compounds and exchanged by mixed column A. The CD47 protein was stained by Cy5 fluorescent dye (Ruixin Biological Technology) and after staining, the labeled protein was purified by column B. Finally, the RS17 peptides were diluted and mixed with the labeled protein in a 1:1 ratio. After incubating at room temperature for 5 min, samples were detected and data were processed by Monolith NT.115 and NT‐Analysis, which were from NanoTemper.
Microscale thermophoresis (MST) is an effective technique that accurately quantitates the interaction between two molecules. It depends on the thermo‐swimming movement of a molecule, which is a directional transfer of the molecule across a temperature gradient dependent on molecular properties such as molecular size, electric charge, and conformation. ^39 A Monolith NT.115 instrument was used as a platform to perform the MST experiment and the results were analyzed using the accompanying NT‐Analysis software.

RFP HepG2 cells = details: in vivo, sc, 20 mg/kg
Method: RFP (CMV‐Puro) lentiviral particles were purchased from HanBio. 5 × 10^4 HepG2 in DMEM medium were seeded into each well of a 12‐well plate in presence of 10% FBS. A 6 μg/ml of Polybrene and 20 MOI lentivirus were added to each well. The cells were resuspended in DMEM medium in presence of 8 μg/ml puromycin after a 48‐h transfection. DMEM medium with 8 μg/ml of puromycin was replaced every 2 days for 1 week. RFP‐positive HepG2 cells were then acquired by flow cytometry. Polybrene and puromycin were from Sigma. Nude mice were subcutaneously injected with 2 × 10^7 RFP HepG2 cells into the ventral side and separated into three groups (5 per group). One of the groups was selected as the experimental group and received a daily subcutaneous injection with RS17 (20 mg/kg), the other two groups represented a positive control and a blank control and received a daily subcutaneous injection with B6H12 (20 mg/kg) and PBS, respectively. Daily injections were administered for 28 days. Body weight, tumor volume, and imaging on day 28 were carried out described above.

[1] = Body weight / tolerability in nude mice, ex vivo experiment; details: 7 days
Method: Female Balb/c nude mice (4–5 weeks) were bred in the absence of pathogens to assess the antitumor activity of indirect therapies in vivo.
RFP‐positive HepG2 cells at a concentration of 2 × 10^7/ml were first co‐incubated for 1 h with 1 μM B6H12 (positive control) or RS17. The nude mice were separated into three groups (5 per group) and subcutaneously injected with 200 μl RFP‐positive HepG2 cells into the ventral side. Normal feeding lasted for 7 days. Body weight and tumor volume were measured in nude mice. Tumor dimensions were measured in two directions with and the formula of ½ × a × b ^2 (a, length; b, width) was used to calculate tumor volume. The intravital fluorescence intensity of the tumors were detected with PerkinElmer IVIS Spectrum on day 7.

[2] = biological target: CD47 on SCC-13 and HepG2 tumor cells (human (endogenous in SCC-13 and HepG2)) (UniProt Q08722)
CD47 on SCC-13 and HepG2 tumor cells (human (endogenous in SCC-13 and HepG2)), sequence (Q08722 19-323): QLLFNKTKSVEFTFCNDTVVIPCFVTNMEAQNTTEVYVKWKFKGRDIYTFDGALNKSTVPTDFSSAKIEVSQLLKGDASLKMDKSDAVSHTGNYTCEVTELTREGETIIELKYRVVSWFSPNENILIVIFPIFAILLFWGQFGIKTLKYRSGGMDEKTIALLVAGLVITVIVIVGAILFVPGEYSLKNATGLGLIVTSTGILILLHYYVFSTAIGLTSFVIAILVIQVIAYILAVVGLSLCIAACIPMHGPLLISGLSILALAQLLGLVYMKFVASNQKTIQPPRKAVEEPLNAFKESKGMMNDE

For “FITC‐RS17: prepared by coupling with FITC through the Acp active group to RS17 ({FITC-Acp}-RRYKQDGGWSHWSPWSS; reading uncertain)”, the “binding of FITC‐RS17 to SCC‐13 cells (in words)” value (SCC‐13 cells) was “effectively bound” and the “binding of FITC‐RS17 to HepG2 cells (in words)” value (HepG2 cells) was “effectively bound”.

For RRYKQDGGWSHWSPWSS [RS17], the Kd (CD47 protein) was 3.86 ± 0.789 nM, the “inhibition of tumor growth” value (RFP HepG2 cells) was > 50% and the tolerability [1] was “well tolerated”.

For RRYKQDGGWSHWSPWSS [RS17 peptide], the in vivo: growth of HepG2 xenografts in nude mice with daily subcutaneous RS17 (20 mg/kg) for 28 days; pair blocked: CD47 on HepG2 and SIRPα on mouse macrophages [2] was > 50%.
